Patent publication US10160764B2 (priority 2016, dated 2018)

Molecular target: influenza virus minigenome (PB2, PB1, PA, NP, Luciferase reporter), Hubei (Influenza A virus, UniProt A0A1L2FNK2)
Format: cell-based
Details: read-out: RNP_Hubei EC50

## O=C1c2c(O)c(=O)cnn2[C@@H]([C@@H](c2cccc(F)c2)c2ccc(F)c(F)c2)[C@H]2CCCN12 [Example 34, (9aR,10S)-10-((S)-(3,4-difluorophenyl)(3-fluorophenyl)methyl)-4-hydroxy-8,9,9a,10-tetrahydro-7H-pyrrolo[1′,2′:4,5]pyrazino[1,2-b]pyridazine-3,5-dione]
  EC50: 0.043 µM
